What was measured:
[1] = Cytotoxicity against human HepG2 cells assessed as cell viability at 1 uM after 4 hrs by Cell-Titer Glo assay; assay type: cell-based; details: read-out: Activity
[2] = Cytotoxicity against human HepG2 cells assessed as cell viability at 10 uM after 4 hrs by Cell-Titer Glo assay; assay type: cell-based; details: read-out: Activity
[3] = Cytotoxicity against human HepG2 cells assessed as cell viability at 1 uM after 24 hrs by Cell-Titer Glo assay; assay type: cell-based; details: read-out: Activity
[4] = Cytotoxicity against human HepG2 cells assessed as cell viability at 100 uM after 4 hrs by Cell-Titer Glo assay; assay type: cell-based; details: read-out: Activity
[5] = Cytotoxicity against human HepG2 cells assessed as cell viability at 10 uM after 24 hrs by Cell-Titer Glo assay; assay type: cell-based; details: read-out: Activity
[6] = Cytotoxicity against human HepG2 cells assessed as cell viability at 100 uM after 24 hrs by Cell-Titer Glo assay; assay type: cell-based; details: read-out: Activity
[7] = test system: T1, Activin receptor type-1 (Homo sapiens), Q04771 [Q207D]
T1 sequence (whole entry): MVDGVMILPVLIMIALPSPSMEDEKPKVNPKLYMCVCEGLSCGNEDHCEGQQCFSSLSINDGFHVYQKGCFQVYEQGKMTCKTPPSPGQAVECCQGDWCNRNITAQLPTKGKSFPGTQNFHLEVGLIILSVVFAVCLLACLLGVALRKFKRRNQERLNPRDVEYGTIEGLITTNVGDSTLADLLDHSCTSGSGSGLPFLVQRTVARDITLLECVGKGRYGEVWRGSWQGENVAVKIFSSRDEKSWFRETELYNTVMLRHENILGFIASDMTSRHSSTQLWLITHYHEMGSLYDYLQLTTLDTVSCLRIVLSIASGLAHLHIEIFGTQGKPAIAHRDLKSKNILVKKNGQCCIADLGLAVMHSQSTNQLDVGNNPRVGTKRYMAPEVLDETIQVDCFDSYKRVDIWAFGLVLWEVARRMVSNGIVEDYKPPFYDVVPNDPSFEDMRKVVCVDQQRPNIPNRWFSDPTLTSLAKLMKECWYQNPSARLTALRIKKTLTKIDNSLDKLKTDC

Row | Compound | viability at 4 h, 1 µM [1] | viability at 4 h, 10 µM [2] | viability at 24 h, 1 µM [3] | viability at 4 h, 100 µM [4] | viability at 24 h, 10 µM [5] | viability at 24 h, 100 µM [6] | ΔTm [7]
1 | CCN(CC)CCNC(=O)c1c(C)[nH]c(/C=C2\C(=O)Nc3ccc(F)cc32)c1C [SUNITINIB] | > 75% | > 75% | > 75% |  |  |  | 
2 | CS(=O)(=O)CCNCc1ccc(-c2ccc3ncnc(Nc4ccc(OCc5cccc(F)c5)c(Cl)c4)c3c2)o1 [LAPATINIB] | > 75% | > 75% | > 75% | > 75% | > 75% | > 75% | 
3 | C[C@@H](Oc1cc(-c2cnn(C3CCNCC3)c2)cnc1N)c1c(Cl)ccc(F)c1Cl [CRIZOTINIB] | > 75% | > 75% | > 75% |  | > 75% |  | 
4 | CC(C)Oc1cccc(-c2cc(-c3ccc(N4CCNCC4)cc3)cnc2N)c1 | > 75% | > 75% | > 75% |  | > 75% |  | 
5 | COc1cc2ncnc(Nc3ccc(F)c(Cl)c3)c2cc1OCCCN1CCOCC1 [GEFITINIB] | > 75% | > 75% | > 75% | > 75% | > 75% | > 75% | 
6 | COc1cc(OC)cc(-c2cc(-c3ccc(N4CCNCC4)cc3)cnc2N)c1 | > 75% | > 75% | > 75% |  | > 75% |  | 
7 | Cc1ccc(Nc2nccc(N(C)c3ccc4c(C)n(C)nc4c3)n2)cc1S(N)(=O)=O [PAZOPANIB] | > 75% | > 75% | > 75% | > 75% | > 75% | > 75% | 
8 | Nc1ncc(-c2ccc(N3CCNCC3)cc2)cc1-c1ccnc2ccccc12 | > 75% | > 75% | > 75% | > 75% | > 75% |  | 
9 | COc1cc(-c2cc(-c3ccc(N4CCNCC4)cc3)cnc2Cl)cc(OC)c1OC | > 75% | > 75% | > 75% | > 75% | > 75% |  | 
10 | COc1cc(-c2cc(-c3ccc(O)cc3)cnc2N)cc(OC)c1OC | > 75% | > 75% | > 75% | > 75% | > 75% | > 75% | 
11 | COc1cc(-c2cc(-c3cccc(NS(C)(=O)=O)c3)cnc2N)cc(OC)c1OC | > 75% | > 75% | > 75% | > 75% | > 75% | > 75% | 
12 | c1ccc2c(-c3cnn4cc(-c5ccc(N6CCNCC6)cc5)cnc34)ccnc2c1 | > 75% | > 75% | > 75% |  |  |  | 
13 | COc1cc(-c2cc(-c3cccc(O)c3)cnc2N)cc(OC)c1OC | > 75% | > 75% | > 75% | > 75% | > 75% |  | 13.2 °C
14 | c1cc(-c2cnn3cc(-c4ccc(N5CCNCC5)cc4)cnc23)c2cccnc2c1 | > 75% | > 75% | > 75% | > 75% | > 75% |  | 
15 | COc1cc(-c2cc(-c3ccc(N4CCNCC4)cc3)cnc2N(C)C)cc(OC)c1OC | > 75% | > 75% | > 75% | > 75% | > 75% |  | 
16 | COc1cc(-c2cc(-c3cccc(N4CCNCC4)c3)cnc2N)cc(OC)c1OC | > 75% | > 75% | > 75% | > 75% | > 75% |  | 
17 | Nc1ncc(-c2ccc(N3CCNCC3)cc2)cc1-c1cccc2ncccc12 | > 75% | > 75% | > 75% | > 75% | > 75% |  | 
18 | COc1cc(-c2cc(-c3ccc(N4CCNCC4)cc3)cnc2N)ccc1Cl | > 75% | > 75% | > 75% |  | > 75% |  | 

Row | Compound | viability at 4 h, 1 µM [1] | viability at 4 h, 10 µM [2] | viability at 24 h, 1 µM [3] | viability at 4 h, 100 µM [4] | viability at 24 h, 10 µM [5] | viability at 24 h, 100 µM [6] | ΔTm [7]
19 | COc1cc(-c2cnc(N)c(-c3cc(OC)c(OC)c(OC)c3)c2)ccc1O | > 75% | > 75% | > 75% | > 75% | > 75% | > 75% | 
20 | CNC(=O)c1cc(Oc2ccc(NC(=O)Nc3ccc(Cl)c(C(F)(F)F)c3)cc2)ccn1 [SORAFENIB] | > 75% | > 75% | > 75% | > 75% | > 75% |  | 
21 | Cc1cn(-c2cc(NC(=O)c3ccc(C)c(Nc4nccc(-c5cccnc5)n4)c3)cc(C(F)(F)F)c2)cn1 [NILOTINIB] | > 75% | > 75% | > 75% | > 75% | > 75% | > 75% | 
22 | CCCS(=O)(=O)Nc1ccc(F)c(C(=O)c2c[nH]c3ncc(-c4ccc(Cl)cc4)cc23)c1F [VEMURAFENIB] | > 75% | > 75% | > 75% | > 75% | > 75% |  | 
23 | Cc1nc(Nc2ncc(C(=O)Nc3c(C)cccc3Cl)s2)cc(N2CCN(CCO)CC2)n1 [DASATINIB] | > 75% | > 75% | > 75% |  |  |  | 
24 | COc1cc(-c2cc(-c3ccc(N4CCNCC4)cc3)cnc2N)ccc1C | > 75% | > 75% | > 75% |  | > 75% |  | 
25 | COc1cc(-c2cnn3cc(-c4ccc(N5CCNCC5)cc4)cnc23)cc(OC)c1OC | > 75% | > 75% | > 75% |  |  |  | 
26 | COc1cccc(-c2cc(-c3ccc(N4CCNCC4)cc3)cnc2N)c1 | > 75% | > 75% | > 75% | > 75% | > 75% |  | 
27 | N#CC[C@H](C1CCCC1)n1cc(-c2ncnc3[nH]ccc23)cn1 [RUXOLITINIB] | > 75% | > 75% | > 75% | > 75% | > 75% |  | 
28 | COc1ccc(-c2cc(-c3ccc(N4CCNCC4)cc3)cnc2N)cc1 | > 75% | > 75% | > 75% |  | > 75% |  | 
29 | COc1cc(-c2cc(-c3ccc(N4CCNCC4)cc3)cnc2OC)cc(OC)c1OC | > 75% | > 75% | > 75% |  | > 75% |  | 
30 | C#Cc1cccc(Nc2ncnc3cc(OCCOC)c(OCCOC)cc23)c1 [ERLOTINIB] | > 75% | > 75% | > 75% | > 75% | > 75% | > 75% | 
31 | CNc1ncc(-c2ccc(N3CCNCC3)cc2)cc1-c1cc(OC)c(OC)c(OC)c1 | > 75% | > 75% | > 75% | > 75% | > 75% |  | 
32 | COc1ccc(-c2cc(-c3ccc(N4CCNCC4)cc3)cnc2N)cc1OC | > 75% | > 75% | > 75% | > 75% | > 75% |  | 
33 | Nc1ncc(-c2ccc(N3CCNCC3)cc2)cc1-c1ccc2c(c1)OCCO2 | > 75% | > 75% | > 75% | > 75% | > 75% |  | 
34 | Nc1ncc(-c2cccc(N3CCNCC3)c2)cc1-c1ccnc2ccccc12 | > 75% | > 75% | > 75% |  | > 75% |  | 
35 | COc1cc(OC)cc(-c2cncc(-c3ccc(N4CCNCC4)cc3)c2)c1 | > 75% | > 75% | > 75% |  | > 75% |  | 

Reference: ChEMBL document CHEMBL3352089 (J Med Chem, 2014)
